Measured values from article PMC8301452, “Targeting of Protein Kinase CK2 in Acute Myeloid Leukemia Cells Using the Clinical-Grade Synthetic-Peptide CIGB-300” (Biomedicines, 2021).
Bridge positions count the residues as written; N and C are the ends. Square brackets hold non-standard residues; d marks the D form. Peptide text beside a SMILES is read from it. βAla = NCCC(=O)O

Key:
HL-60 cells [1] = system: HL-60 cells; design: method as in PMID 24283803, PMID 33562780; details: cited from earlier work
[2] = system: CK2 substrates in OCI-AML3 cells; assay: Phosphoproteomic analysis; format: cell-based, Human; details: 40 µM, 30 min, three replicates
Method: (§1) Sample preparation, phosphopeptide enrichment, and nanoLC-MS/MS for phosphoproteomic analysis of AML cells treated or not with 40 µM CIGB-300 during 30 min were conducted as previously described. Briefly, three replicates from each condition were processed by multienzyme digestion filter-aided sample preparation (MED-FASP) with overnight lys-C and tryptic digestions and the phosphopeptides enriched by TiO2 chromatography. Phosphopeptides were later injected through an EASY-nLC 1200 system into a QExactive HF mass spectrometer (Thermo Scientific, USA) using a home-made column ([…], 20 cm length), and were separated with a gradient from 5% buffer B (0.1% formic acid in acetonitrile) up to 30% in 45 min, 30–60% in 5 min, and 60–95% in 5 min more.
(§2) Data processing and quantification were performed in MaxQuant software (v1.6.2.10) and Perseus computational platform (v1.6.2.2). Phosphopeptides dataset was filtered of reverse and potential contaminants hits, and only phosphosites with localization probability above 0.75 were retained for further analysis. Additionally, only those phosphopeptides represented in each group were considered, and differences in phosphosites occupancy higher than 25% were selected as significant changes. Enzyme–substrate relations were retrieved using post-translational modification resource iPTMnet and web-based tool KEA2 [48, 49]. In addition to well-documented substrates, we searched for candidate CK2 substrates based on the presence of the CK2 consensus sequence, the enzyme–substrate predictions retrieved from NetworKIN database, the dataset of high confidence CK2 substrates reported by Bian et al., and the phosphoproteins that interact with protein kinase CK2 according to the Metascape database.

[3] = system: CK2 substrates in HL-60 cells; assay: Phosphoproteomic analysis; format: cell-based, Human; details: 40 µM, 30 min, three replicates
Method: as §1, §2

[4] = system: primary cells from AML patients' bone marrow samples; assay: Annexin V/PI staining, flow cytometry; format: cell-based, Human; details: primary cells from the majority of AML patients' bone marrow samples; 40 µM, 48 h
Source text: Bone marrow samples from five AML patients with high leukemia involvement were collected in accordance with the Declaration of Helsinki after informed consent and ethical approval of the Clinical Research Board from the Center for Genetic Engineering and Biotechnology (CIGB, Havana, Cuba) (Table S1). Mononuclear cells from bone marrow samples were isolated using Ficoll-Paque (GE Healthcare, Chicago, IL, USA) density gradient centrifugation. Cells were maintained under standard cell culture conditions.
Viability of AML cells was measured using FITC Annexin V Apoptosis Detection Kit I (BD Biosciences, San Jose, CA, USA). Briefly, cell lines were incubated with 40 µM CIGB-300 for 3 and 5 h, while primary cells were incubated during 48 h. Following incubation, cells were washed twice with cold PBS and resuspended in binding buffer (1×) at a final concentration of 1 × 10^6 cells/mL. Subsequently, 5 µL of FITC Annexin V and PI were added, and cell suspensions were incubated for 15 min at room temperature in the dark. Flow cytometric analysis of stained cells was performed in Partec CyFlow Space instrument (Sysmex Partec GmbH, Gorlitz, Germany), and FlowJo software (v7.6.1) (BD, Ashland, OR, USA) was used for data analysis and visualization.

[5] = system: chronic and acute T-cell lymphocytic leukemia (CLL and T-ALL); details: read-out: IC50, estimated values; cited from earlier work
Method: In contrast with solid tumor cells, which display a heterogenous sensitivity profile, leukemia cells are more sensitive to CIGB-300 anti-proliferative effects. Indeed, in a panel containing human lung, cervix, prostate, and colon cancer cell lines, the IC50 values for CIGB-300 ranged between 20 and 300 µM [32], while in chronic and acute T-cell lymphocytic leukemia (CLL and T-ALL), the estimated values were all below 40 µM [34, 44].

OCI-AML3 cells = assay: Cell cycle analysis by PI staining and flow cytometry; format: cell-based, Human; details: 40 µM, 24 h
Method: (§3) For cell cycle analysis, AML cells were incubated with 40 µM CIGB-300 during 24 h. Following treatment with the peptide, cells were collected by centrifugation, washed with PBS, and fixed at 4 °C for 30 min with ice-cold 70% ethanol. After fixation, cells were treated with DNase-free RNase A (Sigma, St. Louis, MO, USA) and subsequently stained at 37 °C for 20 min with 50 µg/mL PI solution (Sigma, St. Louis, MO, USA). Stained cells were analyzed in the abovementioned Partec CyFlow Space flow cytometry, and FlowJo Software (v7.6.1) was used for data processing and visualization.

HL-60 cells [6] = assay: as above; format: cell-based, Human; details: 40 µM, 24 h
Method: as §3

CK2α catalytic subunit = target: T1, CK2α catalytic subunit (Homo sapiens, UniProt P68400); assay: In vivo pull-down followed by immunodetection; format: binding; details: AML cells, immunoblot
T1 construct: endogenous in cells
T1 sequence (P68400 whole entry): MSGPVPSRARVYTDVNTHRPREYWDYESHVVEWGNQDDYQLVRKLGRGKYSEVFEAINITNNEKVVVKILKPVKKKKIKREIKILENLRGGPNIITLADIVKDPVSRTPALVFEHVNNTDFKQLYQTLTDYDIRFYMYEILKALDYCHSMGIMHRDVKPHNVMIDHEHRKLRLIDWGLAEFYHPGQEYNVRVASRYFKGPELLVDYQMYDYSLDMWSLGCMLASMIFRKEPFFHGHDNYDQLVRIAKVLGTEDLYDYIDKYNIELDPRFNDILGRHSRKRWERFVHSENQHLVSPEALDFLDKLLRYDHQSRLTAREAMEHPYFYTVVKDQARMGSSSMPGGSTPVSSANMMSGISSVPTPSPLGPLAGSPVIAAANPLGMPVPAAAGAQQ
Method: For in vivo pull-down assays, CIGB-300 with N-terminal biotin tag (CIGB-300-B) was added to AML cells at a final concentration of 40 µM and incubated for 30 min. Subsequently, cells were collected, washed, and lysed in hypotonic PBS solution (0.1×) containing 1 mM DTT (Sigma, St. Louis, MO, USA) and complete protease inhibitor (Roche, Basel, Switzerland) by eight freeze–thaw (liquid nitrogen/37 °C) cycles. Cellular lysates were cleared by centrifugation, and 300 µg of total protein was added to 30 µL of pre-equilibrated streptavidin–sepharose matrix (GE Healthcare, Chicago, IL, USA). Following 1 h at 4 °C, the matrix was collected by centrifugation and extensively washed with PBS solution (1×) containing 1 mM DTT. Proteins bound to streptavidin–sepharose matrix were digested with trypsin (Promega, Madison, WI, USA) during 16 h or eluted for western blot analysis. In parallel, untreated cells were subjected to the same experimental procedure to identify those proteins non-specifically bound to streptavidin–sepharose matrix.
Cells were lysed in RIPA buffer containing protease/phosphatase inhibitor (Thermo Fisher Scientific, Waltham, MA, USA), and equal amounts of protein were resolved in 12.5% SDS-PAGE [46]. […]

[7] = system: HL-60 cells transduced with LV-pLG or LV-shRNA; assay: PI staining cytotoxicity in NPM1 knock-down cells; format: cell-based, Human; details: 20 or 40 µM, 5 h, n = 3
Method: Cells were infected with HIV-based third-generation lentiviral particles according to experimental conditions previously described. […]. After virus production and subsequent titration, cells were infected by spinoculation in the presence of polybrene (8 µg/mL) and at 10× multiplicity of infection. On the next day, fresh medium was added, and the cells were allowed to recover for another 48 h. Finally, infected cells were analyzed by flow cytometry and Western blot for evaluation of GFP expression and NPM1 protein levels, respectively.
Figure 4 Lentiviral vector-mediated knock-down of NPM1 in AML cells: (A) Flow cytometry analysis of GFP expression in transduced HL-60 cells at day 7 post-infection. Percentage of GFP+ cells was determined on live-cell population (R1 gate in dot plots); (B) Immunoblots from HL-60 transduced cells showing NPM1 protein knock-down in LV-shRNA infected cells. Densitometry analysis values of NPM1 bands were normalized to β-actin and then to untransduced cells; (C) GFP expression levels and (D) viability of transduced HL-60 cells were followed by flow cytometry during three weeks post-infection; (E) Sensibility of transduced cells toward the cytotoxic effect of CIGB-300 was evaluated by PI staining. Cells were incubated with 20 or 40 µM of CIGB-300 for 5 h, stained with PI solution, and then analyzed by flow cytometry. […]

NPM1 S125 = assay: Western blot of CK2-mediated NPM1 phosphorylation; format: cell-based, Human; details: both AML cell lines (HL-60, OCI-AML3), 40 µM
Method: Cells were lysed in RIPA buffer containing protease/phosphatase inhibitor (Thermo Fisher Scientific, Waltham, MA, USA), and equal amounts of protein were resolved in 12.5% SDS-PAGE [46]. Next, proteins were transferred to a nitrocellulose membrane and immunoblotted with the following antibodies according to instructions from the manufacturer: NPM1, p-NPM1 (S125), and CK2α (Abcam, Cambridge, United Kingdom) and β-actin (Sigma, St. Louis, MO, USA). Detection was performed with peroxidase-conjugated anti-mouse or anti-rabbit IgG (Sigma, St. Louis, MO, USA), and signal was developed using SuperSignal West Pico Chemiluminescent Substrate (Thermo Fisher Scientific, Waltham, MA, USA).
Figure S2. CIGB-300 peptide impairs CK2-mediated phosphorylation of NPM1 in AML cells. Cells treated with
40 µM of CIGB-300 during the indicated times were analyzed by western blot using phospho-specific and total […]

SMILES: O=C(O)c1ccc2c(c1)nc(Nc1cccc(Cl)c1)c1ccncc12 [CX-4945]
- response toward cytotoxic effect (HL-60 cells [1]): refractoriness

SMILES: CSCC[C@@H]1NC(=O)[C@H](Cc2c[nH]c3ccccc23)NC(=O)[C@@H](NC(=O)CCNC(=O)[C@H](CCC(N)=O)NC(=O)[C@@H]2CCCN2C(=O)[C@@H]2CCCN2C(=O)[C@H](CCCNC(=N)N)NC(=O)[C@H](CCCNC(=N)N)NC(=O)[C@H](CCCNC(=N)N)NC(=O)[C@H](CCC(N)=O)NC(=O)[C@H](CCCNC(=N)N)NC(=O)[C@H](CCCNC(=N)N)NC(=O)[C@H](CCCCN)NC(=O)[C@H](CCCCN)NC(=O)[C@H](CCCNC(=N)N)NC(=O)CN)CSSC[C@@H](C(=O)O)NC(=O)[C@H]([C@@H](C)O)NC(=O)CNC(=O)[C@H](CC(C)C)NC(=O)[C@H](Cc2c[nH]cn2)NC(=O)[C@H](CCCNC(=N)N)NC(=O)[C@@H]2CCCN2C(=O)[C@H](CO)NC1=O [CIGB-300] (H-GRKKRRQRRRPPQ[βAla]CWMSPRHLGTC-OH; disulfide 15-25; N-terminus and C-terminus assumed)
- Occupancy Treated–Control, BCLAF1 S397 (Q9NYF8) [2]: −0.3056 ^1
- Occupancy Treated–Control, BRCA1 S1164 (P38398) [2]: −0.3932
- Occupancy Treated–Control, CEP170 S1112 (Q5SW79) [2]: −0.4366
- Occupancy Treated–Control, DKC1 S494 (O60832) [2]: −0.2948 ^1
- Occupancy Treated–Control, EIF5B S214 (O60841) [2]: −0.2868
- Occupancy Treated–Control, HNRNPC S220 (P07910) [2]: −0.4698
- Occupancy Treated–Control, HNRNPC S225 (P07910) [2]: −0.4597
- Occupancy Treated–Control, MCM2 S13 (P49736) [2]: −0.4061 ^2
- Occupancy Treated–Control, MCM2 S139 (P49736) [2]: −0.3422 ^2
- Occupancy Treated–Control, NAP1L4 S7 (Q99733) [2]: −0.2719
- Occupancy Treated–Control, NOP56 S520 (O00567) [2]: −0.3705
- Occupancy Treated–Control, SEPTIN2 S218 (Q15019) [2]: −0.4261 ^1, 2
- Occupancy Treated–Control, SRSF11 S433 (Q05519) [2]: −0.3794
- Occupancy Treated–Control, STT3B S499 (Q8TCJ2) [2]: −0.3445
- Occupancy Treated–Control, TOP2A S1247 (P11388) [2]: −0.3351
- Occupancy Treated–Control, TOP2B S1550 (Q02880) [2]: −0.2936
- Occupancy Treated–Control, ABCF1 S140 (Q8NE71) [3]: −0.2693 ^2
- Occupancy Treated–Control, AP3B1 S276 (O00203) [3]: −0.427
- Occupancy Treated–Control, BCLAF1 S397 (Q9NYF8) [3]: −0.2902 ^1
- Occupancy Treated–Control, C1orf52 S158 (Q8N6N3) [3]: −0.3645
- Occupancy Treated–Control, DDX24 S82 (Q9GZR7) [3]: −0.3284
- Occupancy Treated–Control, DKC1 S485 (O60832) [3]: −0.3777
- Occupancy Treated–Control, DKC1 S494 (O60832) [3]: −0.3312 ^1
- Occupancy Treated–Control, EIF3C S39 (Q99613) [3]: −0.2738 ^2
- Occupancy Treated–Control, EIF4G1 S1198 (Q04637) [3]: −0.276
- Occupancy Treated–Control, FKBP15 S346 (Q5T1M5) [3]: −0.25
- Occupancy Treated–Control, HIRIP3 S196 (Q9BW71) [3]: −0.2842
- Occupancy Treated–Control, HIRIP3 S199 (Q9BW71) [3]: −0.2649
- Occupancy Treated–Control, HMGA1 S44 (P17096) [3]: −0.3177
- Occupancy Treated–Control, LEMD3 S144 (Q9Y2U8) [3]: −0.3252
- Occupancy Treated–Control, LYN S13 (P07948) [3]: −0.3987
- Occupancy Treated–Control, M6PR S267 (P20645) [3]: −0.26
- Occupancy Treated–Control, MCM2 S41 (P49736) [3]: −0.421 ^2
- Occupancy Treated–Control, NAP1L4 S125 (Q99733) [3]: −0.3398
- Occupancy Treated–Control, PABPC1 T319 (P11940) [3]: −0.2931
- Occupancy Treated–Control, PAK2 T169 (Q13177) [3]: −0.2963
- Occupancy Treated–Control, PNN S381 (Q9H307) [3]: −0.2998
- Occupancy Treated–Control, SEPTIN2 S218 (Q15019) [3]: −0.2677 ^1, 2
- Occupancy Treated–Control, SRSF11 S464 (Q05519) [3]: −0.3301
- Occupancy Treated–Control, ST13 S75 (P50502) [3]: −0.2852
- Occupancy Treated–Control, STMN1 S63 (P16949) [3]: −0.3357 ^2
- Occupancy Treated–Control, THRAP3 S211 (Q9Y2W1) [3]: −0.2914
- Occupancy Treated–Control, TMPO S66 (P42166) [3]: −0.4836
- Occupancy Treated–Control, TMPO S67 (P42166) [3]: −0.4836
- Occupancy Treated–Control, TOP2A S1106 (P11388) [3]: −0.2854
- Occupancy Treated–Control, XRCC6 S520 (P12956) [3]: −0.3763
- effect on viability (Annexin V-FITC/PI) [4]: promoted apoptosis
- IC50 [5]: < 40 µM
- effect on cell cycle progression (OCI-AML3 cells): no change in cell cycle distribution
- effect on cell cycle progression (HL-60 cells [6]): accumulation of HL-60 cells in S phase
- interaction with CK2α subunit (CK2α catalytic subunit): clear interaction
- sensibility toward cytotoxic effect, LV-shRNA (NPM1 knock-down roughly 85%) vs LV-pLG [7]: no differential sensibility
- CK2-mediated phosphorylation at S125 residue of NPM1 (NPM1 S125): inhibition of CK2-mediated phosphorylation
